A value given as a limit tells only on which side of the number the result lay.

Data set [1] has as its system CAL-27 (Tongue squamous cell carcinoma) cell line. In words: MTT assay on CAL-27 cell line. The data set is classed as cell-based. As to conditions: Homo sapiens, CAL-27, 1.75×10^4 cells/mL, 72 hours.
Data set [2] can be described thus: Solubility of NRC-AN-019 drug substance. Type of data set: physicochemical. An excerpt:
NRC-AN-019 is a pale yellow to light brown coloured crystalline to amorphous powder. Its molecular formula is C25H17F6N5O and its relative molecular mass is 517.44. […] The drug substance is soluble in dimethyl formamide and dimethyl sulfoxide.

For data set [3], the system named is PC3M (Prostate Cancer) Cell lines. The data set can be described thus: MTT assay on PC3M cell lines. The data set is classed as cell-based. As to conditions: Homo sapiens, PC-3M, 0.312×10^5 cells/mL, 72 hours. (Formazan colour is commonly taken as a measure of viable cells.)
Data set [4] in a line: Bioavailability study in rats (oral, LCMS of blood). As to conditions: wistar albino male rats, fasted overnight, average. Type of data set: in vivo. An excerpt:
Four rats (wistar albino, male, weighing 120-180 grams) were divided into two sets of study (two rats in each set) and fasted overnight prior to dosing, but were permitted water ad libitum. The sample preparation and subsequent dilution was made as per protocol with a vehicle, followed by the administration of the sample through oral route. Blood samples were collected by puncturing retero-orbital sinus of the anaesthetized rats (with anesthetic ether) at definite intervals of 15, 30, 60, 120, 240, 360, 480 and 720 minutes post administration. The blood collection was done in prefilled heparin centrifugation tubes.
The blood samples collected were subjected for the subsequent centrifugation and followed by analytical procedure with the use of LCMS technique. The areas under the blood drug concentration versus time curves are calculated by the trapezoidal rule. The analysis was done with respect to AUC (area under curve), Cmax (maximum concentration) and Tmax (time of maximum concentration).

The subject of data set [5] is rats. In words: Toxicological study, maximum tolerated oral dose in rats. Type of data set: in vivo.

Broadly, the IC50 is the concentration at which inhibition is half-maximal. A lower IC50 goes with greater potency. As a reminder, the Cmax is the peak of the concentration-time curve. As a reminder, the Tmax is the time from dosing to the highest level. By AUC is commonly meant the area under the concentration-time curve, a measure of exposure. A high value points to more exposure. With `Cc1ccc(NC(=O)c2cc(C(F)(F)F)cc(C(F)(F)F)c2)cc1Nc1nccc(-c2cccnc2)n1` [NRC-AN-019, (3,5-bis-trifluoromethyl)-N-[4-methyl-3-(4-pyridin-3-yl-pyrimidin-2-ylamino)-pheny-1]-benzamide], the IC50 came to 1440 nM in data set [1] and 4380 nM in data set [3]. In addition, the “solubility in aqueous buffer of pH 1.2” value in data set [2] (aqueous buffer pH 1.2) is listed as “very slightly soluble”. Besides, in data set [2] (dimethyl formamide), the “solubility in dimethyl formamide” value was “soluble”. For the same compound, the “solubility in dimethyl sulfoxide” value in data set [2] (dimethyl sulfoxide) is “soluble”. Moreover, the “solubility in neutral/alkaline aqueous buffers” value in data set [2] (neutral/alkaline aqueous buffers) is recorded as “insoluble”. Besides, the solubility in water result in data set [2] (water) is given as “practically insoluble”. The same compound yielded a Cmax in data set [4] (rat) of 35.2 ng/mL. The Tmax in data set [4] (rat) is 8.7 h. In data set [4] (trapezoidal rule), the AUC stood at 430.0 ng·h/mL. The “maximum tolerated oral dose” value in data set [5] is on record as above 5000 mg/kg bodyweight.

The record behind these values is US9895367B2, “Formulation comprising phenylaminopyrimidine derivative as active agent” (NATCO PHARMA LIMITED, priority 2011, dated 2018).
